The values that follow come from patent US20180200233A1, “COMPOSITIONS FOR PREVENTING CANCERS ASSOCIATED WITH HUMAN PAPILLOMA VIRUSES” (Loma Linda University, priority 2015, published 2018).

In one assay the test system is p53 level in C33A cells. Kind of assay: p53 ELISA in C33A cells. Format: cell-based, human. As to conditions: 200 μM myricetin, 100 μM spinacine; with mitomycin C, 24 h. The protocol: FIGS. 6A-B is an immunoblot and FIG. 6B is a graph showing that treatment with myricetin and spinacine (5) increased cellular levels of caspase 8 and p53. (FIG. 6A) SiHa cells (1×10^6 per well) were seeded into a 6-well plate and allowed to incubate overnight. The indicated concentrations of myricetin and spinacine were added, then cells were incubated for 24 h. Cells were then washed in 1×PBS, then harvested and the resulting level of caspase 8 was measured by immunoblot. (FIG. 6B) SiHa and C33A cells (1×10^6 per well) were seeded into a 6-well plate and allowed to incubate overnight. 200 μM of myricetin and 100 μM spinacine were added together with 4 μg/ml mitomycin C and incubated for 24 h. The resulting level of p53 was measured by ELISA, and the level of p53 found in untreated cells was set at 100%. Experiments were performed in triplicate, and error bars indicate the standard deviation.
If this ability is due to inhibition of E6 functions, then an increase in the levels of caspase 8 and p53 should be observable in SiHa cells following treatment with myricetin and spinacine. To test this prediction, SiHa cells were treated with 50, 100, and 200 μM of myricetin or spinacine for 24 hr, and then measured the level of caspase 8 by immunoblot. […] To ask how p53 levels were affected, an ELISA assay was employed. […]

For assay [1], the system named is UPCI-SCC90-UP-Clone 35 (#90) cells. The experiment in a line: MTT cell viability, HPV+ HNSCC cell line #90 with doxorubicin. As to conditions: 2 μM doxorubicin. Format: cell-based. How it is done:
FIGS. 8A-B includes graphs showing myricetin and spinacine (5) re-sensitized HPV^+, but not HPV^−, HNSCC cell lines to treatment with doxorubicin. One HPV^− (FIG. 8A; #84) and one HPV^+ (FIG. 8B; #90) head and neck cancer cell line (2×10^4 cells per well) were seeded into 96-well plates and allowed to incubate overnight, then cells were pre-treated with myricetin or spinacine (0-12.5 μM) for 4 h. 2 μM of doxorubicin was added and cells were allowed to incubate overnight. Cell viability was measured by MTT assay, and the viability of cells untreated with small molecules was set at 100%. Experiments were performed in triplicate, and error bars indicate the standard deviation.
The results described above indicate that myricetin and spinacine sensitize HPV^+ HNSCC cells to TRAIL-induced apoptosis. To determine whether this sensitization also occurs in the context of chemotherapeutic agents, several HNSCC cell lines were tested for their responses to combination treatments.
The extracellular domain of human TRAIL was cloned into a pTriEx expression plasmid containing N-terminal Hisx6 tag. His-TRAIL was expressed in the E. coli BL-21 pLys strain and purified as previously described. […] All experiments were repeated at least three times (three biological replicates, carried out on different days), with each experimental group measured in triplicate within each of these individual experiments. […]

A further assay concerns the target T1, GST-E6 (Human papillomavirus type 16, UniProt P03126).
T1 construct: made in house
Kind of assay: Direct binding to E6 (FIG. 9). Also noted: species or system HPV 16.

A further assay addresses T2, GST-E6/His-caspase 8 (Human papillomavirus type 16, UniProt P03126).
T2 construct: made in house
As to conditions: Yuan et al. 2012; cited from earlier work.

T1 sequence (P03126 whole entry): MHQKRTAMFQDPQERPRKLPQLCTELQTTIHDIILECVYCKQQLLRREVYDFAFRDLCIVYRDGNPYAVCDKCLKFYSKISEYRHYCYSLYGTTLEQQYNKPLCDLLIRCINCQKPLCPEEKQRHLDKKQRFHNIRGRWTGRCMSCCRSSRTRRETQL
T2 sequence (P03126 whole entry): as above

As to `O=C(O)C1Cc2[nH]cnc2CN1` (stereo not shown) [Compound 5, 4,5,6,7-Tetrahydro-1H-imidazo(4,5-c)pyridine-6-carboxylic acid], the “change in p53 levels in C33A cells (in words)” value in the assay with p53 level in C33A cells is “no significant change”. Moreover, the “cell death of HPV+ #90 cells with doxorubicin plus small molecule (in words)” value in assay [1] (small molecules 0-12.5 μM) is “higher efficiency than did myricetin”. Further, the “sensitization of #90 to doxorubicin” value in assay [1] (concentration of 12.5 μM) is “up to 50%”. Moreover, the “binding to GST-E6 (in words)” value at GST-E6 (FIG. 9) is given as “able to bind to GST-E6”. Further, the “N (binding stoichiometry)” value at GST-E6 (spinacine binding to GST-E6, FIG. 9) was “about 0.5”.

Regarding `O=c1c(O)c(-c2cc(O)c(O)c(O)c2)oc2cc(O)cc(O)c12` [Myricetin, reference compound], the “change in p53 levels in C33A cells (in words)” value in the assay with p53 level in C33A cells is recorded as “no significant change”. The “inhibition of the E6/caspase 8 interaction in vitro (in words)” value on GST-E6/His-caspase 8 was “can inhibit the E6/caspase 8 interaction in vitro”.
